Experiments:
RPMI-8226 = test: Antiproliferative activity against human RPMI-8226 cells; type: functional, cell-based
[1] = target: T1, Farnesyl pyrophosphate synthase (Homo sapiens, UniProt P14324); test: Inhibition of FPPS (unknown origin)
T1 sequence (P14324 whole entry): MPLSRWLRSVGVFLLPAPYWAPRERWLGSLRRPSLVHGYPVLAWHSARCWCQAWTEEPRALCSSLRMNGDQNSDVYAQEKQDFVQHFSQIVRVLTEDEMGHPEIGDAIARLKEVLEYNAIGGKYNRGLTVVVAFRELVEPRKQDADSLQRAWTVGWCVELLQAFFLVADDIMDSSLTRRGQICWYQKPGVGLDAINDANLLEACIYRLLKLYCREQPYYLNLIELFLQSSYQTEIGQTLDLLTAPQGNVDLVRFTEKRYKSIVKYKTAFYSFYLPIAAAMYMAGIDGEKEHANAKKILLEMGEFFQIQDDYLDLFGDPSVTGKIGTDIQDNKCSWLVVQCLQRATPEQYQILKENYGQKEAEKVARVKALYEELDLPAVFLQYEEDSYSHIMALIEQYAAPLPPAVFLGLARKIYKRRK

[2] = target: T2, Geranylgeranyl pyrophosphate synthase (Homo sapiens, UniProt O95749); test: Inhibition of recombinant human N- terminal His-tagged GGPPS (1 to 300 residues) expressed in Escherichia coli
T2 sequence (O95749 whole entry): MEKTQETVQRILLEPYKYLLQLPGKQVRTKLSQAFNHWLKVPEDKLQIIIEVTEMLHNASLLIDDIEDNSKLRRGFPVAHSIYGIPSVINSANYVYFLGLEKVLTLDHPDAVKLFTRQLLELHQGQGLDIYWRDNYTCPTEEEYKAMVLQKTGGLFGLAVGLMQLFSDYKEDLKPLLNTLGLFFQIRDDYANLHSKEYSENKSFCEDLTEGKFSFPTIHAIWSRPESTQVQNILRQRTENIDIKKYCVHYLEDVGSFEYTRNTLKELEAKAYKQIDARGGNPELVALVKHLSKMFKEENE

[3] = target: T3, Geranylgeranyl pyrophosphate synthase (Homo sapiens) (UniProt O95749); test: Inhibition of GGPPS in human MDA-MB-231 cells assessed as reduction in cell growth at 100 uM incubated for 72 hrs by MTT assay relative to control; type: cell-based
T3 sequence (whole entry): T2 sequence (O95749 whole entry)

[4] = target: T3, Geranylgeranyl pyrophosphate synthase (Homo sapiens); test: Inhibition of GGPPS in human MIA PaCa-2 cells assessed as reduction in cell growth at 100 uM incubated for 72 hrs by MTT assay relative to control; type: cell-based
[5] = target: T3, Geranylgeranyl pyrophosphate synthase (Homo sapiens); test: Inhibition of GGPPS in human A549 cells assessed as reduction in cell growth at 100 uM incubated for 72 hrs by MTT assay relative to control; type: cell-based

| IC50 [1] | IC50 [2] | Structure (SMILES) | other results |
| --- | --- | --- | --- |
|  |  | CC(C)=CCCC(C)=CCCc1cn(CC(O)(P(=O)(O)O)P(=O)(O)O)nn1 | EC50 (RPMI-8226): 190 nM |
| 49600 nM | 173 nM | CC(C)=CCC/C(C)=C/CCc1cn(CC(O)(P(=O)(O)O)P(=O)(O)O)nn1 |  |
|  |  | CCCCc1cn(CCCC(O)(P(=O)(O)O)P(=O)(O)O)nn1 | growth inhibition (GI) [3]: < 30%; growth inhibition (GI) [4]: < 30%; growth inhibition (GI) [5]: < 30% |
| 33300 nM | 75 nM | CC(C)=CCC/C(C)=C\CCc1cn(CC(O)(P(=O)(O)O)P(=O)(O)O)nn1 |  |

Reference: ChEMBL document CHEMBL4732201, “Synthesis and preliminary anticancer evaluation of new triazole bisphosphonate-based isoprenoid biosynthesis inhibitors” (Eur J Med Chem, 2021)
